Data as given in US20230210864A1, “AGENT FOR PROMOTING CORNEAL ENDOTHELIAL CELL ADHESION” (Senju Pharmaceutical Co., Ltd., priority 2007, published 2023).

How the values were obtained:
Type in all cases: cell-based, Macaca fascicularis
[1] = tested on: monkey corneal endothelial cells; experiment: Primary culture of monkey corneal endothelial cells, toluidine blue staining, total area of cultured cells (Image J); settings: Y-27632 10 μM, day 10
Procedure: From the corneal tissue isolated from Macaca fascicularis euthanized, Descemet's membrane with corneal endothelial cells attached thereto was separated. In the same manner as in Example 2, for the ROCK inhibitor(+) group, the Descemet's membrane was placed in a medium for corneal endothelium added with Y-27632 (10 μM) and incubated under the conditions of 37° C., 5% CO2 for 10 min. For the ROCK inhibitor(−) group, the membrane was placed in a medium for corneal endothelium without addition of Y-27632 and incubated for 10 min under the same conditions. As the medium for corneal endothelium, the same cell culture medium as in Example 1 was used. The Descemet's membrane after the incubation was incubated together with Dispase II (1.2 U/ml, Roche Applied Science) under the conditions of 37° C., 5% CO2 for 45 min, and the corneal endothelial cells were mechanically separated by a pipetting operation. The separated corneal endothelial cells were centrifuged and stirred in the media for corneal endothelium with Y-27632(+) and Y-27632(−) to the same concentration, and the cells were seeded on a 96 well plate at a density of about 2000 cells per well. […] The total area of the cells was measured using Image J (National Institutes of Health) and analyzed (FIG. 6C).

[2] = tested on: monkey corneal endothelial cells; experiment: Passage culture of monkey corneal endothelial cells with Y-27632, cell count by CellTiter-Glo; settings: Y-27632 10 μM, dilution ½, ⅙ or ⅛
Procedure: From the corneal tissue isolated from Macaca fascicularis euthanized, Descemet's membrane with corneal endothelial cells attached thereto was separated. The Descemet's membrane was incubated together with Dispase II (1.2 U/ml, Roche Applied Science) under the conditions of 37° C., 5% CO2 for 45 min, and the corneal endothelial cells were mechanically separated by a pipetting operation. The separated corneal endothelial cells were centrifuged and seeded on a media for corneal endothelium. The corneal endothelial cells that reached confluent were incubated with 0.05% trypsin under the conditions of 37° C., 5% CO2 for 10 min, and passage-cultured. After 4 to 6 passages, the corneal endothelial cells were placed in a 96-well plate to a dilution of ½, ⅙ or ⅛. The passage culture was continued using a medium for corneal endothelium added with Y-27632 (10 μM) for the ROCK inhibitor(+) group and a medium for corneal endothelium without addition of Y-27632 for the ROCK inhibitor(−) group. At 24 hr after the passage, the cells were counted in the same manner as in Example 5 using CellTiter-Glo (registered trade mark, Promega) (FIG. 8).

[3] = tested on: monkey corneal endothelial cells; experiment: Density of cultured monkey corneal endothelial cells over repeated passages; settings: Y-27632 10 μM, passage repeated 7 times
Procedure: From the corneal tissue isolated from Macaca fascicularis euthanized, Descemet's membrane with corneal endothelial cells attached thereto was separated. The Descemet's membrane was incubated together with Dispase II (1.2 U/ml, Roche Applied Science) under the conditions of 37° C., 5% CO2 for 45 min, and the corneal endothelial cells were mechanically separated by a pipetting operation. The separated corneal endothelial cells were centrifuged and seeded on a medium for corneal endothelium. The corneal endothelial cells that reached confluent were incubated with 0.05% trypsin under the conditions of 37° C., 5% CO2 for 10 min, and passage-cultured. A medium for corneal endothelium added with Y-27632 (10 μM) was used for the ROCK inhibitor(+) group and a medium for corneal endothelium without addition of Y-27632 was used for the ROCK inhibitor(−) group. At 72 hr from the start of the culture, the culture medium was exchanged and, after 72 hr, both the ROCK inhibitor(+) group and ROCK inhibitor(−) group were cultured in a normal medium for corneal endothelium free of Y-27632. On every passage, photographs of the cells were taken with a phase contrast microscope, cell density was measured, and the influence of Y-27632 on the density of the cultured monkey corneal endothelial cells was studied.

[4] = tested on: monkey corneal endothelial cells; experiment: Primary culture of monkey corneal endothelial cells with Y-27632, phase contrast observation; settings: Y-27632 10 μM
Procedure: From the corneal tissue isolated from Macaca fascicularis euthanized for other purpose, Descemet's membrane with corneal endothelial cells attached thereto was separated. For the ROCK inhibitor(+) group, the Descemet's membrane was placed in a medium for corneal endothelium added with Y-27632 (10 μM) and incubated under the conditions of 37° C., 5% CO2 for 10 min. For the ROCK inhibitor(−) group, the membrane was placed in a medium for corneal endothelium without addition of Y-27632 and incubated for 10 min under the same conditions. As the medium for corneal endothelium, the same cell culture medium as in Example 1 was used. The Descemet's membrane after the incubation was incubated together with Dispase II (1.2 U/ml, Roche Applied Science) under the conditions of 37° C., 5% CO2 for 45 min, and the corneal endothelial cells were mechanically separated by a pipetting operation. The separated corneal endothelial cells were centrifuged and stirred in the media for corneal endothelium with Y-27632(+) and Y-27632(−) to the same concentration, and the cells were seeded on a 12 well plate at a density of about 20000 cells per well. The plate was pre-treated with an FNC coating mix (Athena ES) for 10 min. […]

In the case of `CC(N)[C@H]1CC[C@H](C(=O)Nc2ccncc2)CC1` (single isomer, unassigned; (+)) [Y-27632, (+)-trans-4-(1-aminoethyl)-1-(4-pyridylcarbamoyl)cyclohexane], the “total area of cultured cells as compared to the ROCK inhibitor(−)” value [1] is reported as “about 1.6 fold”, the “number of cells that adhered onto the plate at 24 hr after the passage, compared to medium without Y-27632” value [2] is reported as “significantly high” and the “cell density throughout the passage culture, compared to ROCK inhibitor(−) group” value [3] is reported as “higher cell density”. For the same compound, the “number of days before reaching confluent” value ([4]; 7 for ROCK inhibitor(−)) was 3 days and the “cells adhered onto the plate as compared to ROCK inhibitor(−)” value ([4]; after 24 hr from the start of the culture) was “apparently more cells were adhered onto the plate”.
